This note sets out measurements from US9936701B2, “Herbicidal compounds” (Syngenta Participations AG, priority 2013, dated 2018).

The structures appear in SMILES notation.

Experiment [1] has as its system a variety of test species. The experiment can be described thus: Pre-emergence herbicidal activity (glasshouse, sprayed one day after sowing, evaluated after 13 days). The conditions noted are these: application pre-emergence, rate 1000 g/Ha, scale 0-5. Format: in vivo. On the set-up: key: 5=total damage to plant; 0=no damage to plant. The method, boiled down: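 Sow in pots of standard soil; after one day under glasshouse conditions, spray compound (acetone/water 50:50 formulation, 0.5% Tween 20, diluted in water). Grow on at 24/16 °C, 14 h light, 65% humidity with twice-daily watering. Assess at 13 days, 0–5 damage scale.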

The test system of experiment [2] is a variety of test species. Kind of experiment: Post-emergence herbicidal activity (glasshouse, sprayed after 8 days cultivation, evaluated after 13 days). Format: in vivo. Also on record: key: 5=total damage to plant; 0=no damage to plant. The conditions noted are these: rate 1000 g/Ha, scale 0-5. The method, boiled down: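 Pot-grown seedlings sprayed 8 days after sowing with active ingredient in acetone/water (50:50) plus 0.5% Tween 20. Glasshouse at 24/16 °C day/night, 14 h light, 65% humidity, watered twice daily. Damage scored after 13 days on a 0–5 scale (5 = total damage, 0 = none).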

`CCCC1=C(Cl)C(=O)N(c2noc(C(C)C)c2C#N)C1O` (centres unmarked) [A69]: in experiment [1], the “Pre-emergence herbicidal damage score, ABUTH” value was 0; the “Pre-emergence herbicidal damage score, ALOMY” value is reported as 0; the “Pre-emergence herbicidal damage score, AMARE” value is 2; the “Pre-emergence herbicidal damage score, ECHCG” value was 1. Also, in experiment [1], the “Pre-emergence herbicidal damage score, SETFA” value turned out to be 1 and the “Pre-emergence herbicidal damage score, ZEAMX” value was 0. For the same compound, in experiment [2], the “ABUTH (Abutilon theophrasti) damage score, application post-emergence” value (“ABUTH … application post-emergence” below) is given as 4; the “ALOMY (Alopecurus myosuroides) damage score, application post-emergence” value (“ALOMY … application post-emergence” below) turned out to be 2; the “AMARE (Amaranthus retroflexus) damage score, application post-emergence” value (“AMARE … application post-emergence” below) was 5; the “ECHCG (Echinochloa crus-galli) damage score, application post-emergence” value (“ECHCG … application post-emergence” below) worked out at 5. In experiment [2], the “SETFA (Setaria faberi) damage score, application post-emergence” value (“SETFA (Setaria faberi) damage score” below) was 5 and the “ZEAMX (Zea mays) damage score, application post-emergence” value (shortened to “ZEAMX (Zea mays) damage score”) was 1.
On to `CCSC(=O)OC1C(C)=C(Cl)C(=O)N1c1cc(C(C)(C)C)on1` (centres unmarked) [A78], for which, in experiment [1], the “Pre-emergence herbicidal damage score, ABUTH” value stood at 5; the “Pre-emergence herbicidal damage score, ALOMY” value came to 2; the “Pre-emergence herbicidal damage score, AMARE” value is 5; the “Pre-emergence herbicidal damage score, ECHCG” value came to 5. Besides, in experiment [1], the “Pre-emergence herbicidal damage score, SETFA” value amounted to 5 and the “Pre-emergence herbicidal damage score, ZEAMX” value was found to be 2. Further, in experiment [2], the “ABUTH … application post-emergence” value is 5; the “ALOMY … application post-emergence” value is reported as 5; the “AMARE … application post-emergence” value is given as 5; the “ECHCG … application post-emergence” value came out at 5. In addition, in experiment [2], the “SETFA (Setaria faberi) damage score” value came out at 5 and the “ZEAMX (Zea mays) damage score” value is listed as 4.
On to `C#CCNC1=C(Cl)C(=O)N(c2cc(C(C)(C)C)on2)C1O` (centres unmarked) [C5, 1-(5-tert-butylisoxazol-3-yl)-4-chloro-2-hydroxy-3-(prop-2-ynylamino)-2H-pyrrol-5-one], for which, in experiment [1], the “Pre-emergence herbicidal damage score, ABUTH” value is 5; the “Pre-emergence herbicidal damage score, ALOMY” value is reported as 3; the “Pre-emergence herbicidal damage score, AMARE” value turned out to be 5; the “Pre-emergence herbicidal damage score, ECHCG” value was 5. Besides, in experiment [1], the “Pre-emergence herbicidal damage score, SETFA” value is listed as 4 and the “Pre-emergence herbicidal damage score, ZEAMX” value turned out to be 3. Also, in experiment [2], the “ABUTH … application post-emergence” value worked out at 5; the “ALOMY … application post-emergence” value stood at 5; the “AMARE … application post-emergence” value was 5; the “ECHCG … application post-emergence” value was found to be 5. In addition, in experiment [2], the “SETFA (Setaria faberi) damage score” value amounted to 5 and the “ZEAMX (Zea mays) damage score” value turned out to be 5.
As for `CN(C)C1=C(Cl)C(=O)N(c2cc(C(C)(C)C)on2)C1O` (centres unmarked) [C2], in experiment [1], the “Pre-emergence herbicidal damage score, ABUTH” value is 1; the “Pre-emergence herbicidal damage score, ALOMY” value is given as 1; the “Pre-emergence herbicidal damage score, ECHCG” value came out at 2; the “Pre-emergence herbicidal damage score, SETFA” value is recorded as 1. For the same compound, the “Pre-emergence herbicidal damage score, ZEAMX” value in experiment [1] was found to be 1. For the same compound, in experiment [2], the “ABUTH … application post-emergence” value came to 5; the “ALOMY … application post-emergence” value came to 4; the “AMARE … application post-emergence” value worked out at 5; the “ECHCG … application post-emergence” value came to 5. In experiment [2], the “SETFA (Setaria faberi) damage score” value is listed as 4 and the “ZEAMX (Zea mays) damage score” value turned out to be 3.
On to `COCCNC1=C(Cl)C(=O)N(c2cc(C(C)(C)C)on2)C1O` (centres unmarked) [C11], for which, in experiment [1], the “Pre-emergence herbicidal damage score, ABUTH” value amounted to 4; the “Pre-emergence herbicidal damage score, ALOMY” value was found to be 3; the “Pre-emergence herbicidal damage score, AMARE” value was determined as 5; the “Pre-emergence herbicidal damage score, ECHCG” value worked out at 4. Further, in experiment [1], the “Pre-emergence herbicidal damage score, SETFA” value was determined as 4 and the “Pre-emergence herbicidal damage score, ZEAMX” value was determined as 2. For the same compound, in experiment [2], the “ABUTH … application post-emergence” value is 5; the “ALOMY … application post-emergence” value was found to be 4; the “AMARE … application post-emergence” value amounted to 5; the “ECHCG … application post-emergence” value was 5. Moreover, in experiment [2], the “SETFA (Setaria faberi) damage score” value worked out at 5 and the “ZEAMX (Zea mays) damage score” value is given as 1.
For the compound `CC(C)(C)c1cc(N2C(=O)C(Cl)=C(NCC3CC3)C2O)no1` (centres unmarked) [C4], in experiment [1], the “Pre-emergence herbicidal damage score, ABUTH” value is reported as 5; the “Pre-emergence herbicidal damage score, ALOMY” value is 2; the “Pre-emergence herbicidal damage score, AMARE” value amounted to 5; the “Pre-emergence herbicidal damage score, ECHCG” value was 5. Further, in experiment [1], the “Pre-emergence herbicidal damage score, SETFA” value came to 4 and the “Pre-emergence herbicidal damage score, ZEAMX” value amounted to 3. Besides, in experiment [2], the “ABUTH … application post-emergence” value is 5; the “ALOMY … application post-emergence” value turned out to be 5; the “AMARE … application post-emergence” value came out at 5; the “ECHCG … application post-emergence” value is listed as 5. Moreover, in experiment [2], the “SETFA (Setaria faberi) damage score” value was 5 and the “ZEAMX (Zea mays) damage score” value was 4.
On to `CC1=C(Cl)C(=O)N(c2cc(C(C)(C)C)on2)C1OC(=O)OCC(C)(C)C` (centres unmarked) [A88], for which, in experiment [1], the “Pre-emergence herbicidal damage score, ABUTH” value is 5; the “Pre-emergence herbicidal damage score, ALOMY” value came out at 4; the “Pre-emergence herbicidal damage score, AMARE” value is 5; the “Pre-emergence herbicidal damage score, ECHCG” value was 5. Moreover, in experiment [1], the “Pre-emergence herbicidal damage score, SETFA” value is recorded as 5 and the “Pre-emergence herbicidal damage score, ZEAMX” value was determined as 3. Also, in experiment [2], the “ABUTH … application post-emergence” value is 5; the “ALOMY … application post-emergence” value worked out at 5; the “AMARE … application post-emergence” value is on record as 5; the “ECHCG … application post-emergence” value was determined as 5. In addition, in experiment [2], the “SETFA (Setaria faberi) damage score” value came out at 5 and the “ZEAMX (Zea mays) damage score” value came to 5.
With `CC1=C(Cl)C(=O)N(c2cc(C(C)(C)C)on2)C1OC(=O)c1ccc(C(F)(F)F)nc1` (centres unmarked) [A90], in experiment [1], the “Pre-emergence herbicidal damage score, ABUTH” value is 4; the “Pre-emergence herbicidal damage score, ALOMY” value is recorded as 2; the “Pre-emergence herbicidal damage score, AMARE” value is listed as 5; the “Pre-emergence herbicidal damage score, ECHCG” value was determined as 1. For the same compound, in experiment [1], the “Pre-emergence herbicidal damage score, SETFA” value is 2 and the “Pre-emergence herbicidal damage score, ZEAMX” value is 1. Besides, in experiment [2], the “ABUTH … application post-emergence” value amounted to 4; the “ALOMY … application post-emergence” value turned out to be 4; the “AMARE … application post-emergence” value was found to be 5; the “ECHCG … application post-emergence” value came out at 2. Further, in experiment [2], the “SETFA (Setaria faberi) damage score” value was found to be 3 and the “ZEAMX (Zea mays) damage score” value came to 1.
In the case of `CC1=C(Cl)C(=O)N(c2cc(C(C)(C)C)on2)C1OC(=O)c1sccc1Cl` (centres unmarked) [A91], in experiment [1], the “Pre-emergence herbicidal damage score, ABUTH” value was determined as 1; the “Pre-emergence herbicidal damage score, ALOMY” value is given as 2; the “Pre-emergence herbicidal damage score, AMARE” value turned out to be 4; the “Pre-emergence herbicidal damage score, ECHCG” value is given as 0. Moreover, in experiment [1], the “Pre-emergence herbicidal damage score, SETFA” value is listed as 0 and the “Pre-emergence herbicidal damage score, ZEAMX” value was determined as 0. In experiment [2], the “ABUTH … application post-emergence” value was determined as 2; the “ALOMY … application post-emergence” value was 2; the “AMARE … application post-emergence” value is 5; the “ECHCG … application post-emergence” value stood at 1. In experiment [2], the “SETFA (Setaria faberi) damage score” value stood at 1 and the “ZEAMX (Zea mays) damage score” value is 0.
On to `CCCC1=C(Cl)C(=O)N(c2cc(C(C)(C)C)on2)C1O` (centres unmarked) [A27], for which, in experiment [1], the “Pre-emergence herbicidal damage score, ABUTH” value came out at 5; the “Pre-emergence herbicidal damage score, ALOMY” value turned out to be 4; the “Pre-emergence herbicidal damage score, AMARE” value came out at 5; the “Pre-emergence herbicidal damage score, ECHCG” value is 5. Moreover, in experiment [1], the “Pre-emergence herbicidal damage score, SETFA” value is given as 4 and the “Pre-emergence herbicidal damage score, ZEAMX” value came out at 4. In experiment [2], the “ABUTH … application post-emergence” value was 5; the “ALOMY … application post-emergence” value came to 5; the “AMARE … application post-emergence” value was found to be 5; the “ECHCG … application post-emergence” value was found to be 5. Further, in experiment [2], the “SETFA (Setaria faberi) damage score” value came to 5 and the “ZEAMX (Zea mays) damage score” value is 4.
Turning to `COCC(C)(C)c1cc(N2C(=O)C(Cl)=C(C)C2O)no1` (centres unmarked) [A7], in experiment [1], the “Pre-emergence herbicidal damage score, ABUTH” value came out at 5; the “Pre-emergence herbicidal damage score, ALOMY” value is listed as 3; the “Pre-emergence herbicidal damage score, AMARE” value was 5; the “Pre-emergence herbicidal damage score, ECHCG” value worked out at 4. In experiment [1], the “Pre-emergence herbicidal damage score, SETFA” value amounted to 4 and the “Pre-emergence herbicidal damage score, ZEAMX” value turned out to be 2. In experiment [2], the “ABUTH … application post-emergence” value came out at 5; the “ALOMY … application post-emergence” value amounted to 5; the “AMARE … application post-emergence” value was found to be 4; the “ECHCG … application post-emergence” value is listed as 5. In experiment [2], the “SETFA (Setaria faberi) damage score” value was found to be 5 and the “ZEAMX (Zea mays) damage score” value was determined as 5.
